One molecule from article PMC11784013, “Potassium molybdate blocks APN-dependent coronavirus entry by degrading receptor via PIK3C3-mediated autophagy” (Journal of Virology, 2024) can be followed below.

Data set [1] deals with TGEV Miller. The data set can be described thus: TGEV infection of porcine intestinal organoids (monolayer, apical-out). The format is cell-based, transmissible gastroenteritis virus. The note with it: RT-qPCR, TCID50, western blot. Here is the method:
Fig 2 PM restricts TGEV and PRCV infection in porcine intestinal organoids. (A) Intestinal organoids cultured in 96-well plate were incubated with different concentrations of PM for 24 h, which was tested by Cell Counting Kit 8. (B and C) The intestinal organoids monolayer was treated with indicated PM and infected with TGEV Miller (0.1 MOI) for 24 h, which was measured by IFA (B), scale bar: 50 µm, RT-qPCR, TCID50, and western blot (C). (D) Apical-out intestinal organoids were treated with indicated PM and infected TGEV Miller (1 MOI) for 48 h, which was determined by RT-qPCR, TCID50, and western blot. (E and F) The intestinal organoids monolayer was treated with different concentrations of PM and infected with PRCV for 24 h, which was determined by IFA (E), scale bar: 50 µm, RT-qPCR, TCID50, and western blot (F). (G) Apical-out intestinal organoids were treated with indicated PM and infected PRCV (1 MOI) for 48 h, which was detected by RT-qPCR, TCID50, and western blot. Results are presented as mean ± SD of data from three independent experiments. **, P ≤ 0.01; ***, P ≤ 0.001.
Porcine 3D ileum organoids coated with Matrigel for 1 week were dissociated by incubation in 5 mM cold EDTA buffer on a rotating platform for 1 h at 4°C. […]
In general terms: Quantitative PCR measures a nucleic acid by following its amplification.

Data set [2] relates to TGEV Miller. The data set can be described thus: TGEV challenge of neonatal piglets, PM therapy and prevention. The format is in vivo. Here is the method: Fig 10 Oral administration of PM reduces TGEV pathogenicity by autophagic degradation of APN in piglets. (A) Experimental schemes for testing therapeutic and prophylactic efficacy of PM treatment against TGEV challenge in four groups of piglets. (B) Viral shedding was measured by RT-qPCR every 12 h postinfection. (C) TGEV genome copy numbers of duodenum, jejunum, and ileum were detected by RT-qPCR, and APN, PIK3C3, P62, and TGEV N in the small intestine were determined by western blot from piglets sacrificed at 24 hpi. (D) IFA of TGEV N and APN in different segments of the small intestine from piglets sacrificed at 24 hpi. Scale bar: 50 µm. Results are presented as mean ± SD of data from three independent experiments. **, P ≤ 0.01; ***, P ≤ 0.001.
Small intestinal tissues were collected, fixed for 24 h in 10% formalin, dehydrated according to the standard protocol, embedded in paraffin, and subjected to hematoxylin and eosin staining by standard procedures. For immunofluorescence analysis, Organoid monolayers or ST cells were fixed with 4% paraformaldehyde for 20 min and then permeabilized with 0.1% Triton X-100 (Beyotime, China, ST797) for 20 min at 37°C. Organoid monolayers or ST cells were blocked with 5% BSA (Biofroxx, Germany, 4240GR100) for 1 h and then labeled with primary antibodies overnight at 4°C. After rinsing, the sections were incubated with secondary antibodies for 1 h at room temperature. Next, 4’,6-diamidino-2-phenylindole (DAPI; Beyotime, China, C1006) was used to stain the nuclei. After washing, the organoid monolayers or ST cells were visualized using confocal laser-scanning microscopy (Zeiss LSM 900, Germany). Apical-out porcine intestinal organoids or small intestinal tissues were stained with primary and secondary antibodies and visualized using confocal laser-scanning microscopy (Zeiss LSM 900, Germany) according to the manufacturer’s protocol ([28]).
Neonatal pigs spontaneously delivered from sows were confirmed to be negative for TGEV by RT-qPCR and enzyme-linked immunosorbent assay. For the cytotoxicity and pharmacokinetic parameters of the PM, three piglets were orally administered PM (100 mg/kg), and the serum was collected by venipuncture at 0, 1, 2, 4, 6, 8, 10, 12, 16, and 24 h after oral administration of PM for cytotoxicity assays and pharmacokinetic parameter determination. For antiviral animal experiments, piglets were randomly separated into four groups: the mock group ([3]), TGEV group ([3]), TGEV-PM-therapy group ([3]), and TGEV-PM-prevention group ([3]). For the TGEV group, neonatal pigs were orally administered 1.245 × 10^8 PFU TGEV Miller for 24 h. In addition, piglets in the TGEV-PM therapy group were orally infected with 1.245 × 10^8 PFU TGEV Miller and then treated with PM (100 mg/kg). For the TGEV-PM-prevention group, three neonatal pigs were orally pretreated with PM (100 mg/kg) for 24 h and subsequently inoculated with 1.245 × 10^8 PFU TGEV Miller for 24 h. The body weights of all piglets were recorded, and anal swabs were collected every 12 h. At 24 hpi, all pigs were euthanized, and intestinal tissues were collected for RT-qPCR, western blot, IFA, and pathological examination. All animals were handled in strict accordance with good animal practice according to the Animal Ethics Procedures and Guidelines of the People’s Republic of China, and the study was approved by The Animal Administration and Ethics Committee of Lanzhou Veterinary Research Institute, Chinese Academy of Agricultural Sciences (Permit No. LVRIAEC-2020-030).

Data set [3] concerns APN. The data set can be described thus: APN expression in HEK-293T cells (western blot). The format is cell-based, human. To be noted: for APN level, western blot quantified by Image J, relative to no PM (=1): PM 10 mM. As to the method:
Fig. S6. PM degrades human and mouse-derived APN expression. (A and B) HEK-293T cells (A) and […] (B) were treated with PM (10 mM) for 8 h or 16 h respectively, APN expression was measured by western blot. All western blot results were calculated by Image J. All experiments were […]
PM(10mM) - + - + PM(10mM) - + - + […]
For orientation: In western blotting, separated proteins are transferred to a membrane and probed.

The mark [4] stands for this setting: PM-therapy and PM-prevention groups vs control, 24 hpi, western blot.
Where [5] appears, read: oral PM 100 mg/kg every 12 h, TGEV Miller 1.245 × 10^8 PFU oral.

Take `[K+].[K+].[O]=[Mo](=[O])([O-])[O-]` [PM, potassium molybdate]: the “TGEV infection in intestinal organoid monolayer” value in data set [1] (TGEV Miller 0.1 MOI, 24 h, IFA, dose-dependent) was “significantly inhibited TGEV infection”. The “TGEV infection in apical-out organoids” value in data set [1] (TGEV Miller 1 MOI, 48 h) is “markedly inhibited TGEV infection”. The “APN expression and TGEV N protein expression in small intestine (IFA)” value in data set [2] (24 hpi) is on record as “almost entirely inhibited”. Also, the “TGEV-induced villous atrophy of small intestinal segments (H&E)” value in data set [2] (PM 100 mg/kg, preventive or therapeutic treatment, 24 hpi) was “almost completely reversed TGEV-induced villous atrophy”. Also, the “effect of PM alone on the small intestine (H&E)” value in data set [2] (PM treatment alone) is recorded as “did not have any impact on the small intestine”. For the same molecule, the “TGEV burden throughout the small intestine” value in data set [2] (PM-therapy and PM-prevention groups vs control, 24 hpi, RT-qPCR and western blot) is on record as “substantially lower”. Further, in data set [2] (setting [4]), the “APN and P62 expression throughout the small intestine” value is listed as “substantially lower”; the “PIK3C3 expression in the small intestine” value was “significantly higher”. Besides, in data set [2] (setting [5]), the body weight loss result is “TGEV group lost more weight and had higher viral shedding than those receiving PM”; the “viral shedding (anal swabs, RT-qPCR)” value is “TGEV group lost more weight and had higher viral shedding than those receiving PM”. Further, the “APN level, western blot quantified by Image J, relative to no PM (=1)” value in data set [3] (8 h) is listed as 0.42. In data set [3] (16 h), the “APN level, western blot quantified by Image J, relative to no PM (=1)” value stood at 0.23. Further, in data set [3] (PM for 8 and 16 h), the “human APN expression” value is “also decreased human and mouse-derived APN expression”.
